Data published in patent US9738634B2, “Heterocyclic amide compound and herbicide” (SYNGENTA PARTICIPATIONS AG, priority 2013, dated 2017).

Assays:
Assay type in all cases: in vivo
Details in all cases: treatment dosage 320 g/ha
barnyard grass [1] = assay: Test Example 1: weedkilling efficacy, preemergent weed treatment in the submerged state; A: barnyard grass
Summary of the method: (§1)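 Pots of alluvial soil were flooded to a 4 cm depth. Mixed weed seeds were sown and 2.5 leaf-stage rice seedlings transplanted. On sowing day, water-diluted emulsion was applied to the water surface (dose in g/ha). After 3 weeks at 25–30 °C, effects were rated.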

bulrush [2] = assay: Test Example 1: weedkilling efficacy, preemergent weed treatment in the submerged state; B: bulrush
Summary of the method: as §1

oval-leafed pondweed [3] = assay: Test Example 1: weedkilling efficacy, preemergent weed treatment in the submerged state; C: oval-leafed pondweed
Summary of the method: as §1

transplanted rice = assay: Test Example 1: preemergent weed treatment in the submerged state, effect on crop; a: transplanted rice
Summary of the method: as §1

barnyard grass [4] = assay: Test Example 2: weedkilling efficacy, growth period weed treatment in the submerged state; A: barnyard grass
Summary of the method: (§2)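 Weeds treated at the 1-2 leaf stage by application of diluted emulsion onto floodwater (4 cm depth, alluvial soil) at specified g/ha. Grown in greenhouse at 25 to 30° C; herbicidal effect rated three weeks after treatment.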

bulrush [5] = assay: Test Example 2: weedkilling efficacy, growth period weed treatment in the submerged state; B: bulrush
Summary of the method: as §2

oval-leafed pondweed [6] = assay: Test Example 2: weedkilling efficacy, growth period weed treatment in the submerged state; C: oval-leafed pondweed
Summary of the method: as §2

crabgrass [7] = assay: Test Example 3: weedkilling efficacy through soil treatment; D: crabgrass
Summary of the method: (§3)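 Crop and weed responses were judged three weeks after a uniform surface spray of the water-diluted emulsion at the given g/ha rate. Seeds sat beneath about 1.5 cm of sterilized diluvial soil, and boxes stood in a greenhouse at 25 to 30° C.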

green foxtail [8] = assay: Test Example 3: weedkilling efficacy through soil treatment; E: green foxtail
Summary of the method: as §3

barnyard grass [9] = assay: Test Example 3: weedkilling efficacy through soil treatment; F: barnyard grass
Summary of the method: as §3

wild oat [10] = assay: Test Example 3: weedkilling efficacy through soil treatment; G: wild oat
Summary of the method: as §3

black-grass [11] = assay: Test Example 3: weedkilling efficacy through soil treatment; H: black-grass
Summary of the method: as §3

Italian ryegrass [12] = assay: Test Example 3: weedkilling efficacy through soil treatment; I: Italian ryegrass
Summary of the method: as §3

common wind-grass [13] = assay: Test Example 3: weedkilling efficacy through soil treatment; J: common wind-grass
Summary of the method: as §3

Indian mallow [14] = assay: Test Example 3: weedkilling efficacy through soil treatment; K: Indian mallow
Summary of the method: as §3

redroot pigweed [15] = assay: Test Example 3: weedkilling efficacy through soil treatment; L: redroot pigweed
Summary of the method: as §3

fig-leafed goosefoot = assay: Test Example 3: weedkilling efficacy through soil treatment; M: fig-leafed goosefoot
Summary of the method: as §3

chickweed [16] = assay: Test Example 3: weedkilling efficacy through soil treatment; N: chickweed
Summary of the method: as §3

catchweed [17] = assay: Test Example 3: weedkilling efficacy through soil treatment; O: catchweed
Summary of the method: as §3

birds-eye speedwell [18] = assay: Test Example 3: weedkilling efficacy through soil treatment; p: birds-eye speedwell
Summary of the method: as §3

directly sown rice [19] = assay: Test Example 3: soil treatment, effect on crop; b: directly sown rice
Summary of the method: as §3

corn [20] = assay: Test Example 3: soil treatment, effect on crop; c: corn
Summary of the method: as §3

soybean [21] = assay: Test Example 3: soil treatment, effect on crop; d: soybean
Summary of the method: as §3

wheat [22] = assay: Test Example 3: soil treatment, effect on crop; e: wheat
Summary of the method: as §3

beet [23] = assay: Test Example 3: soil treatment, effect on crop; f: beet
Summary of the method: as §3

rapeseed [24] = assay: Test Example 3: soil treatment, effect on crop; g: rapeseed
Summary of the method: as §3

crabgrass [25] = assay: Test Example 4: weedkilling efficacy by foliar treatment; D: crabgrass
Summary of the method: (§4)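 Seeds are spot-sown into sterilized diluvial soil and covered with about 1.5 cm of soil. After 14 days' greenhouse growth at 25 to 30° C, plants are sprayed on stems and leaves with diluted emulsion at the stated g/ha rate, then scored at 3 weeks.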

green foxtail [26] = assay: Test Example 4: weedkilling efficacy by foliar treatment; E: green foxtail
Summary of the method: as §4

barnyard grass [27] = assay: Test Example 4: weedkilling efficacy by foliar treatment; F: barnyard grass
Summary of the method: as §4

wild oat [28] = assay: Test Example 4: weedkilling efficacy by foliar treatment; G: wild oat
Summary of the method: as §4

black-grass [29] = assay: Test Example 4: weedkilling efficacy by foliar treatment; H: black-grass
Summary of the method: as §4

Italian ryegrass [30] = assay: Test Example 4: weedkilling efficacy by foliar treatment; I: Italian ryegrass
Summary of the method: as §4

common wind-grass [31] = assay: Test Example 4: weedkilling efficacy by foliar treatment; J: common wind-grass
Summary of the method: as §4

Indian mallow [32] = assay: Test Example 4: weedkilling efficacy by foliar treatment; K: Indian mallow
Summary of the method: as §4

redroot pigweed [33] = assay: Test Example 4: weedkilling efficacy by foliar treatment; L: redroot pigweed
Summary of the method: as §4

chickweed [34] = assay: Test Example 4: weedkilling efficacy by foliar treatment; N: chickweed
Summary of the method: as §4

catchweed [35] = assay: Test Example 4: weedkilling efficacy by foliar treatment; O: catchweed
Summary of the method: as §4

birds-eye speedwell [36] = assay: Test Example 4: weedkilling efficacy by foliar treatment; p: birds-eye speedwell
Summary of the method: as §4

directly sown rice [37] = assay: Test Example 4: foliar treatment, effect on crop; b: directly sown rice
Summary of the method: as §4

corn [38] = assay: Test Example 4: foliar treatment, effect on crop; c: corn
Summary of the method: as §4

soybean [39] = assay: Test Example 4: foliar treatment, effect on crop; d: soybean
Summary of the method: as §4

wheat [40] = assay: Test Example 4: foliar treatment, effect on crop; e: wheat
Summary of the method: as §4

beet [41] = assay: Test Example 4: foliar treatment, effect on crop; f: beet
Summary of the method: as §4

rapeseed [42] = assay: Test Example 4: foliar treatment, effect on crop; g: rapeseed
Summary of the method: as §4

**Q.** With `CC1=C(c2ccccc2)C(=O)N(C(C)(C)C(=O)Nc2cccc(CF)n2)CO1` [B-2-56] as the compound, how does the “A (barnyard grass) weedkilling efficacy grade” value (barnyard grass [1]) read?
**A.** 5 (weed kill ratio 90% or more, (practically complete withering))

**Q.** What about the “B (bulrush) weedkilling efficacy grade” value (bulrush [2]) of the same compound?
**A.** 5 (weed kill ratio 90% or more, (practically complete withering))

**Q.** What about the “C (oval-leafed pondweed) weedkilling efficacy grade” value (oval-leafed pondweed [3]) of the same compound?
**A.** 5 (weed kill ratio 90% or more, (practically complete withering))

**Q.** And the “a (transplanted rice) effect on crop grade” value (transplanted rice)?
**A.** 1 (weed kill ratio 5% or more, less than 20%)

**Q.** And the “A (barnyard grass) weedkilling efficacy grade” value (barnyard grass [4])?
**A.** 5 (weed kill ratio 90% or more, (practically complete withering))

**Q.** And the “B (bulrush) weedkilling efficacy grade” value (bulrush [5])?
**A.** 5 (weed kill ratio 90% or more, (practically complete withering))

**Q.** And the “C (oval-leafed pondweed) weedkilling efficacy grade” value (oval-leafed pondweed [6])?
**A.** 5 (weed kill ratio 90% or more, (practically complete withering))

**Q.** And the “D (crabgrass) weedkilling efficacy grade” value (crabgrass [7])?
**A.** 5 (weed kill ratio 90% or more, (practically complete withering))

**Q.** And the “E (green foxtail) weedkilling efficacy grade” value (green foxtail [8])?
**A.** 5 (weed kill ratio 90% or more, (practically complete withering))

**Q.** And the “F (barnyard grass) weedkilling efficacy grade” value (barnyard grass [9])?
**A.** 5 (weed kill ratio 90% or more, (practically complete withering))

**Q.** What about the “G (wild oat) weedkilling efficacy grade” value (wild oat [10]) of the same compound?
**A.** 3 (weed kill ratio 40% or more, less than 70%)

**Q.** What about the “H (black-grass) weedkilling efficacy grade” value (black-grass [11]) of the same compound?
**A.** 5 (weed kill ratio 90% or more, (practically complete withering))

**Q.** And the “I (Italian ryegrass) weedkilling efficacy grade” value (Italian ryegrass [12])?
**A.** 5 (weed kill ratio 90% or more, (practically complete withering))

**Q.** What about the “J (common wind-grass) weedkilling efficacy grade” value (common wind-grass [13]) of the same compound?
**A.** 5 (weed kill ratio 90% or more, (practically complete withering))

**Q.** What about the “K (Indian mallow) weedkilling efficacy grade” value (Indian mallow [14]) of the same compound?
**A.** 0 (weed kill ratio 5% or less (practically no effect))

**Q.** And the “L (redroot pigweed) weedkilling efficacy grade” value (redroot pigweed [15])?
**A.** 2 (weed kill ratio 20% or more, less than 40%)

**Q.** What about the “M (fig-leafed goosefoot) weedkilling efficacy grade” value (fig-leafed goosefoot) of the same compound?
**A.** 4 (weed kill ratio 70% or more, less than 90%)

**Q.** What about the “N (chickweed) weedkilling efficacy grade” value (chickweed [16]) of the same compound?
**A.** 4 (weed kill ratio 70% or more, less than 90%)

**Q.** And the “O (catchweed) weedkilling efficacy grade” value (catchweed [17])?
**A.** 5 (weed kill ratio 90% or more, (practically complete withering))

**Q.** What about the “P (birds-eye speedwell) weedkilling efficacy grade” value (birds-eye speedwell [18]) of the same compound?
**A.** 5 (weed kill ratio 90% or more, (practically complete withering))

**Q.** What about the “b (directly sown rice) effect on crop grade” value (directly sown rice [19]) of the same compound?
**A.** 2 (weed kill ratio 20% or more, less than 40%)

**Q.** What about the “c (corn) effect on crop grade” value (corn [20]) of the same compound?
**A.** 1 (weed kill ratio 5% or more, less than 20%)

**Q.** And the “d (soybean) effect on crop grade” value (soybean [21])?
**A.** 0 (weed kill ratio 5% or less (practically no effect))

**Q.** What about the “e (wheat) effect on crop grade” value (wheat [22]) of the same compound?
**A.** 1 (weed kill ratio 5% or more, less than 20%)

**Q.** And the “f (beet) effect on crop grade” value (beet [23])?
**A.** 2 (weed kill ratio 20% or more, less than 40%)

**Q.** And the “g (rapeseed) effect on crop grade” value (rapeseed [24])?
**A.** 1 (weed kill ratio 5% or more, less than 20%)

**Q.** What about the “D (crabgrass) weedkilling efficacy grade” value (crabgrass [25]) of the same compound?
**A.** 5 (weed kill ratio 90% or more, (practically complete withering))

**Q.** And the “E (green foxtail) weedkilling efficacy grade” value (green foxtail [26])?
**A.** 5 (weed kill ratio 90% or more, (practically complete withering))

**Q.** And the “F (barnyard grass) weedkilling efficacy grade” value (barnyard grass [27])?
**A.** 4 (weed kill ratio 70% or more, less than 90%)

**Q.** What about the “G (wild oat) weedkilling efficacy grade” value (wild oat [28]) of the same compound?
**A.** 5 (weed kill ratio 90% or more, (practically complete withering))

**Q.** What about the “H (black-grass) weedkilling efficacy grade” value (black-grass [29]) of the same compound?
**A.** 4 (weed kill ratio 70% or more, less than 90%)

**Q.** And the “I (Italian ryegrass) weedkilling efficacy grade” value (Italian ryegrass [30])?
**A.** 5 (weed kill ratio 90% or more, (practically complete withering))

**Q.** And the “J (common wind-grass) weedkilling efficacy grade” value (common wind-grass [31])?
**A.** 5 (weed kill ratio 90% or more, (practically complete withering))

**Q.** And the “K (Indian mallow) weedkilling efficacy grade” value (Indian mallow [32])?
**A.** 0 (weed kill ratio 5% or less (practically no effect))

**Q.** What about the “L (redroot pigweed) weedkilling efficacy grade” value (redroot pigweed [33]) of the same compound?
**A.** 3 (weed kill ratio 40% or more, less than 70%)

**Q.** And the “N (chickweed) weedkilling efficacy grade” value (chickweed [34])?
**A.** 4 (weed kill ratio 70% or more, less than 90%)

**Q.** And the “O (catchweed) weedkilling efficacy grade” value (catchweed [35])?
**A.** 4 (weed kill ratio 70% or more, less than 90%)

**Q.** What about the “P (birds-eye speedwell) weedkilling efficacy grade” value (birds-eye speedwell [36]) of the same compound?
**A.** 4 (weed kill ratio 70% or more, less than 90%)

**Q.** What about the “b (directly sown rice) effect on crop grade” value (directly sown rice [37]) of the same compound?
**A.** 4 (weed kill ratio 70% or more, less than 90%)

**Q.** What about the “c (corn) effect on crop grade” value (corn [38]) of the same compound?
**A.** 5 (weed kill ratio 90% or more, (practically complete withering))

**Q.** What about the “d (soybean) effect on crop grade” value (soybean [39]) of the same compound?
**A.** 4 (weed kill ratio 70% or more, less than 90%)

**Q.** And the “e (wheat) effect on crop grade” value (wheat [40])?
**A.** 3 (weed kill ratio 40% or more, less than 70%)

**Q.** And the “f (beet) effect on crop grade” value (beet [41])?
**A.** 3 (weed kill ratio 40% or more, less than 70%)

**Q.** What about the “g (rapeseed) effect on crop grade” value (rapeseed [42]) of the same compound?
**A.** 3 (weed kill ratio 40% or more, less than 70%)
